Data: ChEMBL document CHEMBL5604063, “ASAP - DENV-2 NS2B-NS3 protease fluorescence dose response” (2024)
Several values for one entry are separate records, joined by “and”; a condition that tells them apart may be missing. Identical values can stand only once.

Key:
Genome polyprotein [1] = target: T1, Genome polyprotein (dengue virus type 2, UniProt P29990); assay type: functional, Thailand/16681/1984
Genome polyprotein [2] = target: T1, Genome polyprotein; assay type: functional, Thailand/16681/1984; remark: listed apart in the source

T1 sequence (P29990 1346-1475 limits assumed): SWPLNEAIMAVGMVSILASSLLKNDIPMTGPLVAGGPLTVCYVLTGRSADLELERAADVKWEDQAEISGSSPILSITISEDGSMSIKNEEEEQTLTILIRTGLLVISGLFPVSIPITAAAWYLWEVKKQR
T1 sequence (P29990 1476-2093 limits assumed): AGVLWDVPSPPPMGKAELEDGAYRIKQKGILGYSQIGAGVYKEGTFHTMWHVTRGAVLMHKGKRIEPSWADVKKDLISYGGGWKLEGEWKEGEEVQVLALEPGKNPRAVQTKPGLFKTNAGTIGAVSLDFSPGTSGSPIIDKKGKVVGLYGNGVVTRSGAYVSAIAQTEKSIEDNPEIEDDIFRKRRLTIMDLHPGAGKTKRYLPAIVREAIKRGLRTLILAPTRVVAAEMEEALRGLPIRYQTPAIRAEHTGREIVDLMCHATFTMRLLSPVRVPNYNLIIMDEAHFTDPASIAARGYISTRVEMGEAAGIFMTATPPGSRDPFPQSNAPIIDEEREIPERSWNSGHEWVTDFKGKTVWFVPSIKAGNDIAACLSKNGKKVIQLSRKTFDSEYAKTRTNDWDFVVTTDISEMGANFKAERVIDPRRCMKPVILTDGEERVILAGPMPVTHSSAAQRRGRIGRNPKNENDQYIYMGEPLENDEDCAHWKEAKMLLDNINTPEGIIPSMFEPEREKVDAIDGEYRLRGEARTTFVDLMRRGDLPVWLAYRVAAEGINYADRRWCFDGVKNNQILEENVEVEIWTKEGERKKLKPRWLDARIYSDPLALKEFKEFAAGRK

Row | Structure (SMILES) | IC50 (Genome polyprotein [1]) | IC50 (Genome polyprotein [2])
1 | N=C(N)NCCC[C@H](NC(=O)[C@H](Cc1ccc(CN)cc1)NC(=O)c1ccccc1)B(O)O | 720 nM and 583 nM and 818 nM and 732 nM and 585 nM and < 2.49 µM (9×) and 276 nM and 270 nM and 274 nM and 310 nM and 236 nM and 572 nM and 397 nM and 474 nM and 507 nM and 265 nM | 305 nM and 257 nM and 222 nM and 304 nM and 397 nM and 347 nM and 311 nM and 370 nM and 386 nM and 288 nM and 401 nM (2×) and 387 nM and 378 nM and 379 nM and 356 nM and 445 nM and 309 nM and 358 nM (2×) and 321 nM and 398 nM and 512 nM and 367 nM and 298 nM and 273 nM and 243 nM and 437 nM and 458 nM and 503 nM and 302 nM and 267 nM and 516 nM and 409 nM and 384 nM and 328 nM and 540 nM and 421 nM
2 | Nc1cc(Cl)cc(C(=O)Nc2ccc3c(c2)CNC3)c1N | – | > 100 µM
3 | O=C(Nc1cc(Cl)cc(C(=O)Nc2ccc3c(c2)CNC3)c1)OCc1ccccc1 | > 99.5 µM | > 100 µM
4 | O=C(Nc1ccc2c(c1)CNC2)c1cc(Br)cc2[nH]c(Cc3ccccc3)nc12 | – | > 100 µM and 53.9 µM
5 | N#C[C@H](Nc1ccc2c(c1)CNC2)c1n[nH]c2cc(C(F)(F)F)ccc12 | – | > 100 µM
6 | N[C@H]1CCc2cc(NC(=O)c3cc(Cl)cc4[nH]ncc34)ccc21 | – | 59.2 µM
7 | CC(C)c1nc2c(C(=O)Nc3ccc4c(c3)CNC4)cc(Br)cc2[nH]1 | – | > 100 µM
8 | N#Cc1cccc(-c2nc3c(C(=O)Nc4cccnc4)cc(Cl)cc3[nH]2)c1 | – | > 100 µM
9 | N#Cc1cccc(-c2nc3c(C(=O)Nc4ccncc4)cc(Cl)cc3[nH]2)c1 | – | > 100 µM
10 | N#Cc1cccc(-c2nc3c(C(=O)Nc4ccccc4)cc(Cl)cc3[nH]2)c1 | – | > 100 µM
11 | N#Cc1cccc(-c2nc3c(C(=O)NCc4ccccc4)cc(Cl)cc3[nH]2)c1 | – | > 100 µM
12 | Cc1c(C(=O)Nc2cc(C(=O)N3CCn4nccc43)ccn2)cc(C2CC2)n1C | – | > 100 µM
13 | NCc1cccc([C@@H]2C[C@H]2c2cc(Cl)cc(NC(=O)OCc3ccccc3)c2)c1 | 30.3 µM and 50.1 µM | > 100 µM
14 | CC(C)CNC(=O)c1cc(Cl)cc2[nH]c(-c3cccc(C#N)c3)nc12 | – | > 100 µM
15 | NCc1cccc(NC(=O)[C@@H](NC(=O)OCc2ccccc2)c2ccc(OCc3ccccc3)cc2)c1 | 14.2 µM | 31 µM and 29.9 µM and 41.3 µM and 32.5 µM and 27.7 µM and 33.1 µM and 29.8 µM and 19 µM and 28.8 µM
16 | NCc1cccc(NC(=O)C[C@H](NC(=O)OCc2ccccc2)c2ccc(OCc3ccccc3)c(Br)c2)c1 | < 2.49 µM and 1.85 µM and 1.92 µM and 1.84 µM and 2.53 µM and 2.67 µM and 2.65 µM | 8.8 µM and 6.74 µM and 4.06 µM and 4.11 µM and 9.99 µM and 4.61 µM and 3.66 µM

Row | Structure (SMILES) | IC50 (Genome polyprotein [1]) | IC50 (Genome polyprotein [2])
17 | COc1ccccc1-c1nc2c(C(=O)Nc3ccc4c(c3)CNC4)cc(F)cc2[nH]1 | – | > 100 µM
18 | O=C(O)c1cc(Cl)c(F)cc1NS(=O)(=O)c1ccc(Oc2ccccc2Cl)cc1 | 7.82 µM | 11.2 µM and 8.35 µM and 16.5 µM and 10.2 µM and 9.1 µM and 8.36 µM and 12.3 µM and 5.27 µM and 5.73 µM
19 | NCc1cccc(NC(=O)[C@H](NC(=O)OCc2ccccc2)C2CCN(Cc3ccccc3)CC2)c1 | > 99.5 µM | > 100 µM
20 | CO[C@H](C)Cn1cc2c(C(=O)Nc3ccc4c(c3)CNC4)cc(Cl)cc2n1 | – | > 100 µM
21 | CC(C)CNC(=O)c1cc(Cl)c(F)cc1NS(=O)(=O)c1ccc(Oc2ccccc2Cl)cc1 | 6.13 µM | 14.5 µM and 12.6 µM and 12.2 µM and 23.3 µM and 8.64 µM
22 | N#Cc1cccc(-c2nc3c(C(=O)NCc4ccccn4)cc(Cl)cc3[nH]2)c1 | – | > 100 µM
23 | N#Cc1cccc(-c2nc3c(C(=O)NCc4cccnc4)cc(Cl)cc3[nH]2)c1 | – | > 100 µM
24 | NCc1csc2cc(C(=O)Nc3ccc4c(c3)CNC4)ccc12 | – | 83.1 µM and > 100 µM
25 | NCc1cccc(NC(=O)c2cc(Cl)cc(NC(=O)OCc3ccccc3)c2)c1 | 78.2 µM and 61.5 µM | > 100 µM
26 | Cc1cc(-c2ccc([C@@H](NC(=O)OCc3ccccc3)C(=O)Nc3cccc(CN)c3)cc2)cs1 | 4.01 µM | 30.5 µM and 16.5 µM and 28.3 µM and 18.6 µM and 11.2 µM and 15.5 µM
27 | C#Cc1cc(NC(=O)OCc2ccccc2)cc(C(=O)Nc2cccc(CN)c2)c1 | 81.7 µM | > 100 µM
28 | O=C(NCc1cccnc1)[C@H](Nc1ccc2c(c1)CNC2)c1cc(Cl)cc2[nH]ncc12 | – | > 100 µM
29 | NCc1cccc(NC(=O)c2cc(Cl)ccc2NS(=O)(=O)c2ccccc2)c1 | > 99.5 µM | > 100 µM
30 | O=C(Nc1ccc2c(c1)CNC2)c1cc(Cl)cc2c1NCCC2 | – | > 100 µM
31 | COc1ccc(S(=O)(=O)n2nc(OC(=O)c3ccccc3)cc2N)cc1 | 3.47 µM | 2.53 µM and 2.17 µM and 3.95 µM and 3.07 µM (2×) and 2.23 µM and 3.29 µM and 3.81 µM and 2.28 µM
